Measurements from publication PMC3508153 (Journal of medicinal chemistry, 2012).

Experiments:
in vivo [1] = conditions: rat, plasma, po, 10 mg/kg
in vivo [2] = conditions: rat, plasma, ip, 10 mg/kg
[3] = In vivo PK after oral administration in rats, incl. brain and plasma levels; conditions: rat, oral 10 mg/kg; for Vd: sodium salt; for Brain: brain harvested at or near Tmax; for Plasma: plasma harvested at or near Tmax
in vivo [4] = conditions: rat, plasma, iv, 2 mg/kg

Row | SMILES | AUC(0-t) (in vivo [1]) [µM·h] | AUC(0-t) (in vivo [2]) [µM·h] | Vd [3] [mL] | Brain [3] [µM] | Plasma [3] [µM] | AUC(0-t) (in vivo [4]) [µM·h]
1 | O=C(O)c1cc(-c2cccc(-c3ccc4c(c3)CN(C3CCCC3)C4=O)c2)ccc1Cl [Compound 24, 4-Chloro-3'-(2-cyclopentyl-1-oxoisoindolin-5-yl)biphenyl-3-carboxylic acid] | 2.67 | 3.23 | 96.2 |  |  | 
2 | COc1ccc(C(=O)O)cc1-c1cccc(COc2ccc3c(c2)CN(C2CCCC2)C3=O)c1 [Compound 15a, 3'-((2-Cyclopentyl-1-oxoisoindolin-5-yloxy)methyl)-6-methoxybiphenyl-3-carboxylic acid] | 12 |  | 10875.2 | 0.18 ± 0.01 | 1.46 ± 0.29 | 
3 | O=C(O)c1cc(-c2cccc(COc3ccc4c(=O)n(C5CC5)sc4c3)c2)ccc1Cl [Compound 3e, 4-Chloro-3'-((2-cyclopropyl-3-oxo-2,3-dihydrobenzo[d]isothiazol-6-yloxy)methyl)biphenyl-3-carboxylic acid] | 61.5 |  | 4.1 | 0.03 ± 0.01 | 0.8 ± 0.2 | 
4 | O=C(O)c1cc(-c2cccc(COc3ccc4c(c3)CN(C3CCCC3)C4=O)c2)ccc1O [Compound 15b, 3'-((2-Cyclopentyl-1-oxoisoindolin-5-yloxy)methyl)-4-hydroxybiphenyl-3-carboxylic acid] | 7.1 |  | 28.0 | 0.0071 ± 0.0004 | 0.21 ± 0.046 | 2.57
5 | O=C(O)c1cc(-c2cccc(COc3ccc4c(c3)CN(C3CCCC3)C4=O)c2)ccc1Cl [Compound 2] | 42.5 |  |  |  |  | 11.8
